Results as given in ChEMBL document CHEMBL3217416, “[4-(6,7-Disubstituted quinazolin-4-ylamino)phenyl] carbamic acid esters: a novel series of dual EGFR/VEGFR-2 tyrosine kinase inhibitors” (Medchemcomm, 2011).

Experiments:
[1] = molecular target: Epidermal growth factor receptor (Homo sapiens, UniProt P00533); assay: Inhibition of EGFR (unknown origin)
PC-3 [2] = assay: Antiproliferative activity against human PC3 cells by MTS assay; assay type: functional
HT-29 [3] = assay: Antiproliferative activity against human HT-29 cells by MTS assay; assay type: functional
MCF7 [4] = assay: Antiproliferative activity against human MCF7 cells by MTS assay; assay type: functional
[5] = molecular target: Vascular endothelial growth factor receptor 2 (Homo sapiens, UniProt P35968); assay: Inhibition of VEGFR2 (unknown origin)
Chain of Vascular endothelial growth factor receptor 2 (P35968 whole entry): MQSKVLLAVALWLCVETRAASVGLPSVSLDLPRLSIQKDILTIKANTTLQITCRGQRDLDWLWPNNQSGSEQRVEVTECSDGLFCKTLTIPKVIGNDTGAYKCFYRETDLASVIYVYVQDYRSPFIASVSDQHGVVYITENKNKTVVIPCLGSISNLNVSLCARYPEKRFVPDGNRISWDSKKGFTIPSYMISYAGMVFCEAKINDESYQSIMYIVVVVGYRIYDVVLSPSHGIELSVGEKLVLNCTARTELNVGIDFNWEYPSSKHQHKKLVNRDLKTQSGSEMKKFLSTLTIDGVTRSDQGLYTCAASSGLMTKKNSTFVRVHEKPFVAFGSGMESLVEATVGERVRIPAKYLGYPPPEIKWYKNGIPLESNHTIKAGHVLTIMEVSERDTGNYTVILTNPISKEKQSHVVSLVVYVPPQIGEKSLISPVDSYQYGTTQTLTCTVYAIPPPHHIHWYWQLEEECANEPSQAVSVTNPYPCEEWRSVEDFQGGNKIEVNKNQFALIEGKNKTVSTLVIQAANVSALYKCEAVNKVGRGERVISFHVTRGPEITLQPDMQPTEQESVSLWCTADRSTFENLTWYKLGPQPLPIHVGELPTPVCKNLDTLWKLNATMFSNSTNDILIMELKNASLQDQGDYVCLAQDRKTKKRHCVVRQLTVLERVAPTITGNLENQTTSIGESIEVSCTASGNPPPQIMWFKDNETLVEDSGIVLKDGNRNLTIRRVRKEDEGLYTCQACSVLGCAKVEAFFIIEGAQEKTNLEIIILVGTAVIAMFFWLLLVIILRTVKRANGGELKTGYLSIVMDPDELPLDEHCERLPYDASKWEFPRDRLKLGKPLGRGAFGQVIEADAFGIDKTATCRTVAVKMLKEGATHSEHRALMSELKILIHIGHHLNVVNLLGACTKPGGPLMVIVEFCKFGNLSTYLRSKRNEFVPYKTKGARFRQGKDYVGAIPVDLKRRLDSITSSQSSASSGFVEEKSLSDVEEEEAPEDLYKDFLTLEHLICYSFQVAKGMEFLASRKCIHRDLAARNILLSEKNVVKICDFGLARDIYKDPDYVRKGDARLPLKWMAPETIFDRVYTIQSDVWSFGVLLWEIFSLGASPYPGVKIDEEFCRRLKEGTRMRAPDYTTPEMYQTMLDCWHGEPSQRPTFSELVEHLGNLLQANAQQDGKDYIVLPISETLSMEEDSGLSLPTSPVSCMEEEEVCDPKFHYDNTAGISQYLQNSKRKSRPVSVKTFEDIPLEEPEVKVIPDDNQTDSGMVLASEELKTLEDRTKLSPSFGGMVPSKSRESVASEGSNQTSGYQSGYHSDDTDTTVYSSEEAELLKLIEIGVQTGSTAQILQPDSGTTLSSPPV

[6] = Antiproliferative activity against human EAhy926 cells by MTS assay; assay type: functional, cell-based; settings: EA.hy 926
PC-3 [7] = assay: Antiproliferative activity against human PC3 cells at 10 uM by MTS assay; assay type: functional, cell-based
HT-29 [8] = assay: Antiproliferative activity against human HT-29 cells at 10 uM by MTS assay; assay type: functional, cell-based
MCF7 [9] = assay: Antiproliferative activity against human MCF7 cells […] by MTS assay; assay type: functional, cell-based

Chain of Epidermal growth factor receptor (P00533 whole entry): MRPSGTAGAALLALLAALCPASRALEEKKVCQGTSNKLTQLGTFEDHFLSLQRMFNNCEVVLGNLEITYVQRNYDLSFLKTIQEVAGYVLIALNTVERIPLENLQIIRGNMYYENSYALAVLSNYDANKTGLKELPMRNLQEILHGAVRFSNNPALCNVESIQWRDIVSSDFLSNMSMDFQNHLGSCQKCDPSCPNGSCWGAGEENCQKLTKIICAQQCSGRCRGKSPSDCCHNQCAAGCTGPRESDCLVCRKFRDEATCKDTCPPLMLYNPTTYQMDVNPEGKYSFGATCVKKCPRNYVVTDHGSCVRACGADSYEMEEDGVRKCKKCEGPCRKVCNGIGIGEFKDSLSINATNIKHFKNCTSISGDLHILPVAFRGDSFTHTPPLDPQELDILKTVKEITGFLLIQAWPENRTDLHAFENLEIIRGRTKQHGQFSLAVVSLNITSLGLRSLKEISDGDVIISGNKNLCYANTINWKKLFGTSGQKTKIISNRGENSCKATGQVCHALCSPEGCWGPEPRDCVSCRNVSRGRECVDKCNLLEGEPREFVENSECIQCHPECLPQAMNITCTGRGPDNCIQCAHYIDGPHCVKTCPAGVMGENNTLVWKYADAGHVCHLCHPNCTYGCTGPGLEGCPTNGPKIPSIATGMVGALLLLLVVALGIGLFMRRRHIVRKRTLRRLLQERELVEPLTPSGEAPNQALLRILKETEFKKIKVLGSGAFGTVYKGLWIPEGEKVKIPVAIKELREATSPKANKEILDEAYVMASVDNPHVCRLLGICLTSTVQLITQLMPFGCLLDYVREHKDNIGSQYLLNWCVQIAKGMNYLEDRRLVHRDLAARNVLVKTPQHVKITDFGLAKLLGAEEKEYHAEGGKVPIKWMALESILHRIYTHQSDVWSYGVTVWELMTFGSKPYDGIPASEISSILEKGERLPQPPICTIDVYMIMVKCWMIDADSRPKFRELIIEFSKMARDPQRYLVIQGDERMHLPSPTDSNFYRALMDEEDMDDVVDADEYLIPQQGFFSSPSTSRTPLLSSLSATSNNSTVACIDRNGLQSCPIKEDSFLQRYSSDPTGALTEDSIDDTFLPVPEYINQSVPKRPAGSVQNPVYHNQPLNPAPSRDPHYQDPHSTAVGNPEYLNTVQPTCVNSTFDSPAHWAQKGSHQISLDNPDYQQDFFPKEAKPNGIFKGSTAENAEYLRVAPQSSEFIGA

`CCCOC(=O)Nc1ccc(Nc2ncnc3cc(OC)c(OC)cc23)cc1Cl` showed an IC50 [1] of 1 µM.
Molecule `CCCCOC(=O)Nc1ccc(Nc2ncnc3cc(OC)c(OC)cc23)cc1Cl` has an IC50 [1] of 6.4 µM.
In the case of `CCOC(=O)Nc1cc(Cl)c(Nc2ncnc3cc(OC)c(OC)cc23)cc1Cl.Cl`, the “inhibition (INH)” value (PC-3 [2]) is reported as 0%, the “inhibition (INH)” value (HT-29 [3]) is reported as 5% and the “inhibition (INH)” value (MCF7 [4]) is reported as 6%. The IC50 [1] was > 10 µM.
In the case of `CCNC(=O)Nc1cc(Cl)c(Nc2ncnc3cc(OC)c(OC)cc23)cc1Cl.Cl`, the “inhibition (INH)” value (PC-3 [2]) is reported as 11%, the “inhibition (INH)” value (HT-29 [3]) is reported as 16% and the “inhibition (INH)” value (MCF7 [4]) is reported as 21%. For the same molecule, the IC50 [1] was > 10 µM.
In the case of `CCCCNC(=O)Nc1cc(Cl)c(Nc2ncnc3cc(OC)c(OC)cc23)cc1Cl.Cl`, the “inhibition (INH)” value (PC-3 [2]) is reported as 0%, the “inhibition (INH)” value (HT-29 [3]) is reported as 3% and the “inhibition (INH)” value (MCF7 [4]) is reported as 0%. The IC50 [1] was > 10 µM.
For `COc1cc2ncnc(Nc3ccc(NC(C)=O)c(C)c3)c2cc1OC.Cl`, the “inhibition (INH)” value (PC-3 [2]) was 0%, the “inhibition (INH)” value (HT-29 [3]) was 0% and the “inhibition (INH)” value (MCF7 [4]) was 0%. For the same molecule, the IC50 [1] was > 10 µM.
In the case of `CCC(=O)Nc1ccc(Nc2ncnc3cc(OC)c(OC)cc23)cc1C.Cl`, the “inhibition (INH)” value (PC-3 [2]) is reported as 0%, the “inhibition (INH)” value (HT-29 [3]) is reported as 0% and the “inhibition (INH)” value (MCF7 [4]) is reported as 28%. The IC50 [1] was > 10 µM.
In the case of `CCCC(=O)Nc1ccc(Nc2ncnc3cc(OC)c(OC)cc23)cc1C`, the IC50 [1] is reported as > 10 µM and the IC50 [5] is reported as 4.3 µM.
With `CCCCC(=O)Nc1ccc(Nc2ncnc3cc(OC)c(OC)cc23)cc1C` the IC50 [1] was > 10 µM.
For `CCOC(=O)Nc1ccc(Nc2ncnc3cc(OCCN(CC)CC)c(OC)cc23)cc1C`, the IC50 [6] was > 10 µM, the IC50 (PC-3 [7]) was > 10 µM and the IC50 (HT-29 [8]) was > 10 µM. For the same molecule, the IC50 (MCF7 [9]) was > 10 µM, the IC50 [1] was > 10 µM and the IC50 [5] was 3.7 µM.
For `CCOC(=O)Nc1ccc(Nc2ncnc3cc(OC)c(OCCN(CC)CC)cc23)cc1C`, the IC50 [6] was > 10 µM, the IC50 (PC-3 [7]) was > 10 µM and the IC50 (HT-29 [8]) was > 10 µM. For the same molecule, the IC50 (MCF7 [9]) was > 10 µM, the IC50 [1] was > 10 µM and the IC50 [5] was 7.2 µM.
With `CCOC(=O)Nc1ccc(Nc2ncnc3cc(OCCN4CCCCC4)c(OC)cc23)cc1C` the IC50 [6] was 9.3 µM, the IC50 (PC-3 [7]) was > 10 µM and the IC50 (HT-29 [8]) was 5.2 µM. The IC50 (MCF7 [9]) was > 10 µM, the IC50 [1] was > 10 µM and the IC50 [5] was 0.9 µM.
For `CCOC(=O)Nc1ccc(Nc2ncnc3cc(OCCN4CCOCC4)c(OC)cc23)cc1C`, the IC50 [6] was > 10 µM, the IC50 (PC-3 [7]) was > 10 µM and the IC50 (HT-29 [8]) was > 10 µM. For the same molecule, the IC50 (MCF7 [9]) was > 10 µM, the IC50 [1] was 8 µM and the IC50 [5] was 0.4 µM.
`CCCOc1cc2ncnc(Nc3ccc(NC(=O)OCC)c(C)c3)c2cc1OC` showed an IC50 [1] of 3.9 µM.
In the case of `CCCCOc1cc2c(Nc3ccc(NC(=O)OCC)c(C)c3)ncnc2cc1OCCN(CC)CC`, the IC50 [6] is reported as 8.1 µM, the IC50 (PC-3 [7]) is reported as > 10 µM and the IC50 (MCF7 [9]) is reported as > 10 µM. The IC50 [1] was > 10 µM and the IC50 [5] was 5.7 µM.
In the case of `CCOC(=O)Nc1ccc(Nc2ncnc3cc(OCCN(CC)CC)c(OC)cc23)cc1Cl`, the IC50 [6] is reported as 6.2 µM, the IC50 (PC-3 [7]) is reported as > 10 µM and the IC50 (MCF7 [9]) is reported as > 10 µM. The IC50 [1] was > 10 µM and the IC50 [5] was 3.3 µM.
In the case of `CCOC(=O)Nc1ccc(Nc2ncnc3cc(OCCN4CCCCC4)c(OC)cc23)cc1Cl`, the IC50 [6] is reported as 9.3 µM, the IC50 (PC-3 [7]) is reported as > 10 µM and the IC50 (HT-29 [8]) is reported as 5.2 µM. The IC50 (MCF7 [9]) was 3 µM, the IC50 [1] was > 10 µM and the IC50 [5] was 0.8 µM.
With `CCOC(=O)Nc1ccc(Nc2ncnc3cc(OCCN4CCOCC4)c(OC)cc23)cc1Cl` the IC50 [6] was > 10 µM, the IC50 (PC-3 [7]) was > 10 µM and the IC50 (HT-29 [8]) was > 10 µM. The IC50 (MCF7 [9]) was > 10 µM, the IC50 [1] was 8.5 µM and the IC50 [5] was 0.3 µM.
Work on `CCCOc1cc2ncnc(Nc3ccc(NC(=O)OCC)c(Cl)c3)c2cc1OC` yielded an IC50 [1] of 5.5 µM.
For `CCCCOc1cc2c(Nc3ccc(NC(=O)OCC)c(Cl)c3)ncnc2cc1OCCN(CC)CC`, the IC50 [6] was 2.8 µM, the IC50 (PC-3 [7]) was > 10 µM and the IC50 [1] was 9.8 µM. The IC50 [5] was 4.8 µM.
For `CCCOC(=O)Nc1ccc(Nc2ncnc3cc(OC)c(OC)cc23)cc1`, the IC50 [1] was 7.05 µM.
`CCCCOC(=O)Nc1ccc(Nc2ncnc3cc(OC)c(OC)cc23)cc1` showed an IC50 [1] of 0.8 µM.
Molecule `COC(=O)Nc1ccc(Nc2ncnc3cc(OC)c(OC)cc23)cc1C` has an IC50 [1] of 4 µM.
Work on `CCOC(=O)Nc1ccc(Nc2ncnc3cc(OC)c(OC)cc23)cc1C` yielded an IC50 [1] of 0.9 µM.
Work on `CCOC(=O)Nc1cc(Nc2ncnc3cc(OC)c(OC)cc23)ccc1C` yielded an IC50 [1] of 5 µM.
In the case of `CCCCOC(=O)Nc1ccc(Nc2ncnc3cc(OC)c(OC)cc23)cc1C`, the IC50 [1] is reported as 7.6 µM and the IC50 [5] is reported as 5.2 µM.
`COC(=O)Nc1ccc(Nc2ncnc3cc(OC)c(OC)cc23)cc1Cl` gave an IC50 [1] of 6.15 µM and an IC50 [5] of 5.05 µM.
For `COC(=O)Nc1cc(Nc2ncnc3cc(OC)c(OC)cc23)ccc1Cl.Cl`, the “inhibition (INH)” value (PC-3 [2]) was 3%, the “inhibition (INH)” value (HT-29 [3]) was 0% and the “inhibition (INH)” value (MCF7 [4]) was 0%. The IC50 [1] was > 10 µM.
For `CCOC(=O)Nc1ccc(Nc2ncnc3cc(OC)c(OC)cc23)cc1Cl`, the IC50 [1] was 1 µM.
With `CCOC(=O)Nc1cc(Nc2ncnc3cc(OC)c(OC)cc23)ccc1Cl` the IC50 [1] was 0.9 µM.
With `COc1cc2/c(=N/c3ccc(Br)cc3F)nc[nH]c2cc1OCC1CCN(C)CC1` [VANDETANIB] the “inhibition (INH)” value (PC-3 [2]) was 33% and the “inhibition (INH)” value (MCF7 [4]) was 26%.
